Measured values from patent publication US8586611B2 (priority 2005, dated 2013).

Columns and labels:
Assay type in all cases: in vivo
Plasmopara viticola = assay: Test B: grape downy mildew, spray 24 h after inoculation (disease rating, 100 = 100% disease control); conditions: sprayed 24 h after inoculation
How it was run: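 This is a curative spray test, applied 24 h after inoculation. Compounds in 50/50 acetone–water with 250 ppm Trem 014 surfactant were sprayed to run-off on P. viticola-infected seedlings, with 200 ppm equating to 500 g/ha. Plants were kept 5 days in a 20 °C growth chamber, then 24 h humid, and scored 0–100 for disease control relative to controls.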

Phytophthora infestans [1] = assay: whole plant or invertebrate; conditions: tomato late blight, sprayed the day before inoculation
Phytophthora infestans [2] = assay: whole plant or invertebrate; conditions: tomato late blight, sprayed 17 h after inoculation
[3] = tested on: Erysiphe graminis f. sp. tritici; assay: Test E: wheat powdery mildew, spray the day before inoculation (disease rating, 100 = 100% disease control); conditions: sprayed the day before inoculation, 7 days at 20° C.
How it was run: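 Protective test: spores of E. graminis f. sp. tritici dusted on wheat seedlings one day after run-off spraying of test suspension (acetone/water with 250 ppm surfactant; 200 ppm = 500 g/ha). Ratings after 7 days in growth chamber at 20° C, 100 = full control, 0 = none, relative to controls.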

[4] = unmarked compounds (no asterisk, not 40 or 10 ppm)

Structure (SMILES) | Test B disease rating (100 = 100% disease control, 0 = no disease control) (Plasmopara viticola; tested at 10 ppm (**)) | Test C disease rating (100 = 100% disease control, 0 = no disease control) (Phytophthora infestans [1]; tested at 10 ppm (**)) | Test D disease rating (100 = 100% disease control, 0 = no disease control) (Phytophthora infestans [2]; tested at 10 ppm (**)) | Test E disease rating (100 = 100% disease control, 0 = no disease control) ([3]; tested at 10 ppm (**)) | Test B disease rating (100 = 100% disease control, 0 = no disease control) (Plasmopara viticola; [4]) | Test C disease rating (100 = 100% disease control, 0 = no disease control) (Phytophthora infestans [1]; [4]) | Test D disease rating (100 = 100% disease control, 0 = no disease control) (Phytophthora infestans [2]; [4]) | Test E disease rating (100 = 100% disease control, 0 = no disease control) [3, 4]
COc1ccccc1C(C)N(C)C(=O)c1csc(C2CCN(C(=O)Cn3nc(C(F)(F)F)cc3C)CC2)n1 (centres unmarked) [compound 255] | 25 | 9 | 0 | 0 | – | – | – | –
C[C@@H](NC(=O)c1csc(C2CCN(C(=O)Cc3cccc(Br)c3)CC2)n1)c1ccc(F)cc1 [compound 271] | – | – | – | – | 7 | 67 | 0 | 0
C[C@@H](NC(=O)c1csc(C2CCN(C(=O)Cc3cccc(Br)c3)CC2)n1)C1CCCCC1 [compound 272] | – | – | – | – | 14 | 50 | 0 | 0
C[C@@H](NC(=O)c1csc(C2CCN(C(=O)Cc3cccc(Br)c3)CC2)n1)c1ccc([N+](=O)[O-])cc1 [compound 273] | – | – | – | – | 44 | 0 | 0 | 0
Cc1ccc([C@@H](C)NC(=O)c2csc(C3CCN(C(=O)Cc4cccc(Br)c4)CC3)n2)cc1 [compound 274] | – | – | – | – | 29 | 37 | 0 | 0
C[C@@H](NC(=O)c1csc(C2CCN(C(=O)Cc3cccc(Br)c3)CC2)n1)c1ccccc1F [compound 276] | – | – | – | – | 30 | 17 | 0 | 0
C[C@@H](NC(=O)c1csc(C2CCN(C(=O)Cc3cccc(Br)c3)CC2)n1)c1cccc(C(F)(F)F)c1 [compound 277] | – | – | – | – | 15 | 9 | 0 | 0
C[C@@H](NC(=O)c1csc(C2CCN(C(=O)Cc3cccc(Br)c3)CC2)n1)c1ccc(Cl)cc1 [compound 280] | – | – | – | – | 0 | 24 | 0 | 0
COc1cccc([C@@H](C)NC(=O)c2csc(C3CCN(C(=O)Cc4cccc(Br)c4)CC3)n2)c1 [compound 281] | – | – | – | – | 15 | 0 | 0 | 0
C=CCN(C(=O)c1csc(C2CCN(C(=O)Cc3cc(C)ccc3C)CC2)n1)[C@H](C)c1ccccc1 [compound 284] | – | – | – | – | 10 | 21 | 0 | 0
Cc1ccc(C)c(CC(=O)N2CCC(c3nc(C(=O)N(C(C)C)[C@H](C)c4ccccc4)cs3)CC2)c1 [compound 285] | – | – | – | – | 10 | 25 | 0 | 0
